According to US20230129258A1, “HETEROTANDEM BICYCLIC PEPTIDE COMPLEXES” (BicycleTx Limited, priority 2019, published 2023):
Like-named read-outs stand apart in the source and are kept apart here. Starred links: 1 amine or outer side, 2 acyl side, 3 side chain; linkers in the order of their positions; H or OH if unused. Positions of bridges follow the written chain, without caps; N, C: chain ends. Non-standard residues stand in square brackets, D forms with d. Chains are numbered I, II in the order given. ξ: configuration not given here. X1 = O=C(CCOCCOCCOCCN(CCOCCOCCOCCn1cc(CCC(=O)[*:2])nn1)CCOCCOCCOCCn1cc(CCC(=O)[*:3])nn1)[*:1]; X3 = O=C(CCc1cn(CCOCCOCCOCCN(CCOCCOCCOCCC(=O)[*:3])CCOCCOCCOCCn2cc(CCC(=O)[*:2])nn2)nn1)[*:1]; TATA = O=C(CC[*:1])N1CN(C(=O)CC[*:2])CN(C(=O)CC[*:3])C1; ξDip = NC(C(=O)O)C(c1ccccc1)c1ccccc1; Hyp = O=C(O)[C@@H]1C[C@@H](O)CN1; hArg = N=C(N)NCCCC[C@H](N)C(=O)O; tBuAla = CC(C)(C)C[C@H](N)C(=O)O; Cba = N[C@@H](CC1CCC1)C(=O)O; Nle = CCCC[C@H](N)C(=O)O; ξP = O=C(O)C1CCCN1

Key:
CD137 = CD137 (Homo sapiens, UniProt Q07011); test: CD137 reporter assay (Promega, Jurkat cells) in co-culture with EphA2-expressing tumor cells (A549, PC3, HT29); type: cell-based; design: host or cells: Jurkat reporter cells; conditions: for Emax (fold induction over background): CD137 reporter coculture assay with PC3 tumor cells; for EC50: EC50, CD137 reporter coculture assay with PC3 tumor cells
Chain of CD137 (Q07011 24-255): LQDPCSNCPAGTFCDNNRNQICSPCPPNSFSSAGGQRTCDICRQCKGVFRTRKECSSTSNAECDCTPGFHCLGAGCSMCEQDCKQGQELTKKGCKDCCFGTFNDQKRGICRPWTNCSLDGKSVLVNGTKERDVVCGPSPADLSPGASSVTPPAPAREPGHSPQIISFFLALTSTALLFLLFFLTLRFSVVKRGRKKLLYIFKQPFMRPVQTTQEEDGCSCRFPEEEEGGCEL
Summary of the method: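 Promega CD137 luciferase reporter Jurkat cells co-cultured with tumor cells (RKO for PD-L1; A549, PC3, HT29 for EphA2) and serially diluted test articles in RPMI + 1% FBS, 6 h at 37° C. Bio-Glo luminescence as fold change over cells alone; log(agonist)-response fit gives EC50 (nM) and max fold induction.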

human PBMCs = test: Human PBMC co-culture cytokine secretion assay with EphA2-expressing tumor cells (MC38, HT-1080, HT29); type: cell-based; conditions: human PBMC-MC38 co-culture
Procedure: […] MC38 were cultured in Dulbecco's Modified Eagle Medium supplemented with 10% heat inactivated Fetal Bovine Serum (FBS), 1× Penicillin/Streptomycin, 10 mM HEPES, and 2 mM L-Glutamine (referred to as R10 medium). Frozen PBMCs from healthy human donors were thawed and washed once in room temperature PBS with benzonase, and then resuspended in RPMI supplemented with 10% heat inactivated Fetal Bovine Serum (FBS), 1× Penicillin/Streptomycin, 10 mM HEPES, and 2 mM L-Glutamine (herein referred to as R10 medium). 100 μl of PBMCs (1,000,000 PBMCs/ml) and 100 μl of tumor cells (100,000 tumor cells/ml) (Effector:Target cell ratio (E:T) 10:1) were plated in each well of a 96 well flat bottom plate for the co-culture assay. 100 ng/ml of soluble anti-CD3 mAb (clone OKT3) was added to the culture on day 0 to stimulate human PBMCs. Test, control compounds, or vehicle controls were diluted in R10 media and 50 μL was added to respective wells to bring the final volume per well to 250 μL. Plates were covered with a breathable film and incubated in a humidified chamber at 37° C. with 5% CO2 for two days. […] Briefly, the standards and samples were added to a black 96 well plate. Microparticle cocktail (provided in Luminex kit, R&D Systems) was added and shaken for 2 hours at room temperature. The plate was washed 3 times using a magnetic holder. Biotin cocktail was then added to the plate and shaken for 1 hour at RT. The plate was washed 3 times using a magnetic holder. Streptavidin cocktail was added to the plate and shaken for 30 minutes at RT. The plates were washed 3 times using a magnetic holder, resuspended in 100 μL of wash buffer, shaken for 2 minutes at RT, and read using the Luminex 2000. Raw data were analyzed using built-in Luminex software to generate standard curves and interpolate protein concentrations, all other data analyses and graphing were performed using Excel and Prism software. Data represents one study with three independent donor PBMCs tested in experimental duplicates.
Similarly, PBMCs from healthy donors were co-cultured with EphA2 expressing cancer cells (MC38 and HT-1080) at a ratio of 5:1 in presence of anti-CD3 and BCY13272. […]

[1] = Pharmacokinetics in SD rats; type: in vivo; conditions: male, SD, rat, plasma, IV Inf (15 minutes); for half-life: iv, read-out: T1/2 (converted); for clearance: read-out: Clp; for Vd: read-out: Vdss
Procedure: Male SD Rats were dosed with each heterotandem Bicycle peptide complex formulated in 25 mM Histidine HCl, 10% sucrose pH 7 by IV bolus or IV infusion (15 minutes). Serial bleeding (about 80 μL blood/time point) was performed via submandibular or saphenous vein at each time point. All blood samples were immediately transferred into prechilled microcentrifuge tubes containing 2 μL K2-EDTA (0.5M) as anti-coagulant and placed on wet ice. Blood samples were immediately processed for plasma by centrifugation at approximately 4° C., 3000 g. The precipitant including internal standard was immediately added into the plasma, mixed well and centrifuged at 12,000 rpm, 4° C. for 10 minutes. The supernatant was transferred into pre-labeled polypropylene microcentrifuge tubes, and then quick-frozen over dry ice. The samples were stored at […] or below as needed until analysis. 7.5 μL of the supernatant samples were directly injected for LC-MS/MS analysis using an Orbitrap Q Exactive in positive ion mode to determine the concentrations of analyte. Plasma concentration versus time data were analyzed by non-compartmental approaches using the Phoenix WinNonlin 6.3 software program. C0, CI, Vdss, T½, AUC(0-last), AUC(0-inf), MRT(0-last), MRT(0-inf) and graphs of plasma concentration versus time profile were reported.

MC38 tumors = test: Anti-tumor activity of EphA2/CD137 complexes in syngeneic MC38 tumor model; type: in vivo, C57BL/6J-hCD137 mice; conditions: 5 mg/kg IV BIW, 6 doses; day 28
Procedure: 6-8 weeks old C57BL/6J-hCD137 female mice were inoculated in the flank with 1×10^6 syngeneic MC38 cells. When tumors reached 76 mm^3 size on average, mice were randomized to receive vehicle or BCY12491 (intraperitoneal administration). BCY12491 was administered (n=6 mice/treatment cohort) at either 5 mg/kg or 15 mg/kg either daily (QD) or every three days (Q3D). QD dosed mice received 22 doses of BCY12491 and Q3D dosed mice received 8 doses of BCY12491. Tumor growth was monitored by caliper measurements until day 73 after treatment initiation. The results of this experiment may be seen in FIG. 9 where it can be seen that the effect of BCY12491 on tumor growth becomes apparent in the first two weeks of the dosing period reducing the tumor growth and causing reduction of volumes of many of the treated tumors. By day 41, 15 out of 24 BCY12491 treated animals had completely responded to the treatment and had no palpable tumors left.
6-8 week old female C57BL/6J-hCD137 mice [B-hTNFRSF9(CD137) mice; Biocytogen] were implanted subcutaneously with 1×10^6 MC38 cells. Mice were randomized into treatment groups (n=6/cohort) when average tumor volumes reached around 76 mm^3 and were treated with daily doses of vehicle (25 mM histidine, 10% sucrose, pH7). BCY12491 treatment was conducted at two different dose levels (5 and 15 mg/kg) and two different dosing schedules (QD: daily; Q3D: every three days). Animals received either 22 QD doses or 8 Q3D doses intraperitoneally (ip). Tumor growth was monitored until tumor reached volumes over 2000 mm^3 or until 73 days after treatment initiation. After Day 73, 5 complete responder animals were re-challenged with MC38 tumor cell implantation alongside with 5 naïve C57BL/6J-hCD137 mice. Tumor growth was monitored for 20 days.
(§1) 6-8 week old female C57BL/6J-hCD137 mice [B-hTNFRSF9(CD137) mice; Biocytogen] were implanted subcutaneously with 1×10^6 MC38 cells. Mice were randomized into treatment groups (n=6/cohort) when average tumor volumes reached around 92 mm^3 and were treated intravenously with Q3D doses of vehicle (25 mM histidine, 10% sucrose, pH7), 15 mg/kg of BCY12730, BCY12723 or BCY12491 (7 Q3D doses). Tumor growth was monitored for 28 days or until tumors exceeded 2000 mm^3.
as §1, with “76” for “92”, “twice weekly (BIW)” for “Q3D”, “5” for “15”, “BCY13048, BCY13050,” for “BCY12730, BCY12723”, “(6 BIW” for “(7 Q3D”

MC38 tumor tissue = test: Immune response in MC38 tumors (nCounter transcriptional analysis, CD8 IHC); type: in vivo, C57BL/6J-hCD137 mice; conditions: Q3D x3, peptides 15 mg/kg IV, anti-CD137 2 mg/kg ip
Procedure: 6-8 week old female C57BL/6J-hCD137 mice [B-hTNFRSF9(CD137) mice; Biocytogen] were implanted subcutaneously with 1×10^6 MC38 cells. Mice were randomized into treatment groups when average tumor volumes reached around 240 mm^3 and were treated (n=6/treatment cohort) with vehicle (25 mM histidine, 10% sucrose, pH7) intravenously (IV), 15 mg/kg BCY12491 (EphA2: CD137 1:2 Heterotandem Complex) IV, 15 mg/kg BCY13626 (non-binding control for EphA2) IV or 2 mg/kg Anti-CD137 (urelumab analogue) intraperitoneally. All treatments were given Q3D for three doses and tumor tissues were harvested 1 hour after the last dose. Part of the tumor tissue was used for RNA isolation for transcriptional analysis and a part of the tumor tissue was used for formalin fixed paraffin embedded (FFPE) sample preparation for immunohistochemical (INC) analysis. RNA was isolated from tumor tissues using RNAeasy kit [Qiagen] and transcriptional analysis was performed using nCounter Mouse PanCancer IO 360 panel (Nanostring) from 100 ng RNA/tumor. Data was analysed using the nSolver Analysis Software (Nanostring). CD8+ tumor infiltrating cells were stained in FFPE tissue sections using anti-mouse CD8 antibody (Abcam, #ab217344) and Ventana Discovery OmniMap anti Rabbit-HRP Kit (Ventana #760 4310).

Substance	Emax (fold induction over background) (CD137)	EC50 (CD137) [pM]	EC50 (human PBMCs; Donor 1, 72 h incubation, read-out: Donor 1 EC50 of IFNγ secretion) [pM]	EC50 (human PBMCs; Donor 2, 72 h incubation, read-out: Donor 2 EC50 of IFNγ secretion) [pM]	half-life [1] [h]	clearance [1] [mL/min/kg]	Vd [1] [L/kg]	complete responses (MC38 tumors)	CD8+ cell infiltration in tumor (IHC) (MC38 tumor tissue)	T cell score in tumor tissue (MC38 tumor tissue; vs vehicle)	cytotoxic cell score in tumor tissue (MC38 tumor tissue; vs vehicle)	EC50 (human PBMCs; Donor 1, 48 h incubation, read-out: Donor 1 EC50 of IFNγ secretion) [pM]	EC50 (human PBMCs; Donor 2, 48 h incubation, read-out: Donor 2 EC50 of IFNγ secretion) [pM]
I: A[hArg]DC[Hyp][Cba]VN[ξP]LCLHP[dD]W[hArg]C-NH2 / II: Ac-C[tBuAla]PE[dK]PYCFADPY[Nle]CA-NH2 / III: Ac-C[tBuAla]PE[dK]PYCFADPY[Nle]CA-NH2 (linker I:4-I:11-I:18, II:1-II:8-II:15, III:1-III:8-III:15 via TATA; linker I:N-II:5-III:5 via X1) [BCY13050]	42.46	90	380	190	3.3	11	1.4	3 out of 6					
anti-CD137 antibody: Anti-CD137 (urelumab analogue)									Some increase in CD8+ cell infiltration	increased significantly	increased significantly		
I: Ac-C[tBuAla]PE[dK]PYCFADPY[Nle]CA-NH2 / II: Ac-C[tBuAla]PE[dK]PYCFADPY[Nle]CA-NH2 / III: C[Hyp]LVNPLCL[ξDip]P[dD]WTC-NH2 (linker I:1-I:8-I:15, II:1-II:8-II:15, III:1-III:8-III:15 via TATA; linker I:5-II:5-III:N via X3) [BCY13048]	48.35	90			3.8	11	1.2	5 out of 6				300	240
